Assays:
[1] = system: matrix metalloprotease 9 mRNA; experiment: MMP9 mRNA expression in HaCaT cells contacted with FICZ, quantitative PCR; type: cell-based, human; details: 24 hours
Procedure: First, HaCaT cells (CLI; Catalogue No.: 300493) were suspended in a DMEM medium at the density of 1×10^5 cell/mL, and 100 μL of the thus obtained suspension was added to each well of white 96 well plates (Thermo Fisher Scientific, MA, U.S.A.; Catalogue No.: 136102) so that the number of the cells in each well was 10,000 cells/well. In accordance with a conventional method, the cells were incubated at 37° C. for 24 hours in the presence of 5% CO2. Thereafter, the DMEM medium was removed, and 100 μL of a new DMEM medium containing FICZ at a predetermined concentration (i.e., 5 nM, 50 nM, 500 nM, and 5,000 nM) was added, followed by further incubation for 24 hours at 37° C. and 5% CO2. Meanwhile, negative controls were prepared by adding 100 μL of a DMEM medium containing no FICZ instead of the DMEM medium containing FICZ, which were also incubated for 24 hours at 37° C. and 5% CO2. […]
Quantitative PCR was carried out by using THUNDERBIRD Next SYBR qPCR Mix (Toyobo Co., Ltd., Osaka, Japan; Catalogue No. QPX-201) and StepOne Real-Time PCR System (Thermo Fisher Scientific, MA, USA). […] The reaction solution was used for quantitative PCR. Based on Ct (cycle threshold) value obtained by quantitative PCR, an amount of mRNA of each target gene was obtained. […]

[2] = system: artemin mRNA; experiment: Inhibition of FICZ-induced artemin mRNA expression in HaCaT cells, quantitative PCR; type: cell-based, human
Procedure: First, HaCaT cells (CLI; Catalogue No.: 300493) were suspended in a DMEM medium at the density of 1×10^5 cell/mL, and 100 μL of the thus obtained suspension was added to each well of white 96-well plates (Thermo Fisher Scientific, MA, U.S.A.; Catalogue No.: 136102) so that the number of the cells in each well was 10,000 cells/well. In accordance with the conventional method, the cells were incubated for 24 hours at 37° C. and 5% CO2. Thereafter, the DMEM medium was removed, and 100 μL of a new DMEM medium containing both FICZ at predetermined concentration (500 nM or 5,000 nM) and Fraglide-1 at a predetermined concentration (0 nM or 250 nM). After incubation for 24 hours at 37° C. and 5% CO2, the total RNA was extracted, cDNA was prepared, and quantitative PCR was carrier out using the obtained cDNA in the same manner as described in Experiment 2. In FIG. 7, the results obtained for each sample were shown as a relative value, with the expression level of artemin mRNA in HaCaT cells incubated 24 hours in DMEM medium containing neither FICZ nor Fraglide-1 set to 1.
As described above, Fraglide-1 inhibited production of artemin induced by FICZ. Then, the following experiment was conducted in order to quantitatively evaluated the effect of inhibiting artemin production exerted by Fraglide-1. Briefly, HaCaT cells were treated with FICZ and Fraglide-1 in the same manner as in Experiment 3-1 except that the concentration of FICZ was set to 5,000 nM and the concentration of Fraglide-1 was set to 0 μM, 0.01 μM, 0.1 μM, 1 μM, 10 μM, and 100 µM, and then the total RNA was extracted, cDNA was prepared, and quantitative PCR was carried out. Based on the obtained result, the inhibition rate (Inhibition (%)) of the artemin mRNA expression triggered by FICZ when a given concentration of Fraglide-1 was added to the cell culture medium together with 5,000 nM of FICZ was calculated in accordance with the following formula. […]

Compound | concentration necessary to observe a significant increase in the expression level of MMP9 mRNA [1] | expression level of MMP9 mRNA, dependence on concentration ([1]; FICZ 5-5,000 nM) | Inhibition (%) of artemin mRNA expression triggered by FICZ ([2]; 100 nM (0.1 μM) Fraglide-1, 5,000 nM FICZ) | expression level of artemin mRNA compared to cells without FICZ ([2]; 250 μM Fraglide-1 plus 500 nM or 5,000 nM FICZ, 24 hours) | inhibition of FICZ-induced expression of artemin, dependence on concentration ([2]; Fraglide-1 0.01-100 μM, 5,000 nM FICZ)
6-formylindolo[3,2-b] carbazole [FICZ] | about 5000 nM | increased along with the concentration of FICZ |  |  | 
O=C1C=C(c2ccccc2)C(O)O1 (centres unmarked) [Fraglide-1, 5-hydroxy-4-phenyl-2(5H)butenolide] |  |  | approximately 50% | no increase in the expression level of artemin mRNA was observed | in the concentration dependent manner
